Measurements taken from US6706740B2, “Fungicidal heterocyclic aromatic amides and their compositions, methods of use and preparation” (Dow AgroSciences LLC, priority 1999, dated 2004).
Read-outs that look alike come from different tables or passages of the source.

Legend:
[1] = system: Rhizoctonia solani (RHIZSO); experiment: microbe, parasite or virus in culture; format: cell-based; details: Rhizoctonia solani, read-out: RHIZSO in vitro Growth Inhibition
[2] = system: Stagonospora nodorum (Leptosphaeria nodorum—LEPTNO); experiment: In vitro fungal growth inhibition, Stagonospora nodorum (LEPTNO); format: cell-based; details: Leptosphaeria, read-out: LEPTNO in vitro Growth Inhibition
Erysiphe graminis—ERYSGT = experiment: Powdery Mildew of Wheat, in vivo whole plant, 24 Hour Protectant; details: for pest or weed control at 100 ppm: Erysiphe, read-out: ERYSGT in vivo 1 Day Protectant
[3] = system: Mycosphaerella graminicola (Septoria tritici—SEPTTR); experiment: In vitro fungal growth inhibition, Mycosphaerella graminicola (SEPTTR); format: cell-based; details: Zymoseptoria tritici, read-out: SEPTTR in vitro Growth Inhibition
[4] = system: Puccinia recondita—PUCCRT; experiment: Brown Rust of Wheat, in vivo whole plant, 24 Hour Protectant; details: for pest or weed control at 100 ppm: Puccinia, control of fungal infection vs untreated plants, read-out: PUCCRT in vivo 1 Day Protectant; for PUCCRT in vivo 1 Day Protectant: % control of fungal infection vs untreated plants
[5] = system: Phytophthora infestans (PHYTIN); experiment: microbe, parasite or virus in culture; format: cell-based; details: Phytophthora infestans, read-out: PHYTIN in vitro Growth Inhibition
[6] = system: Leptosphaeria nodorum—LEPTNO; experiment: Glume Blotch of Wheat, in vivo whole plant, 24 Hour Protectant; details: for pest or weed control at 100 ppm: Leptosphaeria, read-out: LEPTNO in vivo 1 Day Protectant
[7] = system: Magnaporthe grisea (Pyricularia oryzae—PYRIOR); experiment: microbe, parasite or virus in culture; format: cell-based; details: Pyricularia oryzae, read-out: PYRIOR in vitro Growth Inhibition
Ustilago maydis (USTIMA) = experiment: microbe, parasite or virus in culture; format: cell-based; details: Mycosarcoma maydis, read-out: USTIMA in vitro Growth Inhibition
Septoria tritici—SEPTTR = experiment: Leaf Blotch of Wheat, in vivo whole plant, 24 Hour Protectant; details: for pest or weed control at 100 ppm: Zymoseptoria tritici, 24 h, control of fungal infection vs untreated plants, read-out: SEPTTR in vivo 1 Day Protectant; for SEPTTR in vivo 1 Day Protectant: % control of fungal infection vs untreated plants
[8] = system: Phytophthora infestans—PHYTIN; experiment: whole plant or invertebrate; format: in vivo; details: Phytophthora, in Solanum lycopersicum, 24 h, read-out: PHYTIN in vivo 1 Day Protectant
[9] = wheat plants sprayed at 100 ppm, inoculated after 24 hours, control of fungal infection vs untreated plants
[10] = wheat plants sprayed at 100 ppm, inoculated after 24 hours
[11] = 100 ppm spray, 24 hour protectant, wheat, control of fungal infection vs untreated plants
[12] = 100 ppm spray, 24 hour protectant, wheat
[13] = 100 ppm spray, wheat, 24 hour protectant, % control of fungal infection vs untreated plants
[14] = 100 ppm spray, wheat, 24 hour protectant
[15] = 100 ppm spray, wheat, 24 hour protectant, control of fungal infection vs untreated plants

| SMILES | inhibition at 25 ppm [1] [%] | inhibition at 25 ppm [5] [%] | inhibition at 25 ppm [7] [%] | inhibition at 25 ppm (Ustilago maydis (USTIMA)) [%] | pest or weed control at 100 ppm [8] [%] | inhibition at 25 ppm ([2]; 25 ppm in growth medium) [%] | inhibition at 25 ppm ([3]; 25 ppm in growth medium) [%] | pest or weed control at 100 ppm (Erysiphe graminis—ERYSGT; [15]) [%] | pest or weed control at 100 ppm [4, 14] [%] | pest or weed control at 100 ppm (Septoria tritici—SEPTTR; [14]) [%] | also measured |
| --- | --- | --- | --- | --- | --- | --- | --- | --- | --- | --- | --- |
| CC(NC(=O)c1nc(Br)ccc1O)c1ccc(Oc2ccccc2)cc1 (stereo not drawn) [Compound 490] | < 80 | < 80 | < 80 | < 80 | < 25 |  |  |  |  |  | inhibition at 25 ppm ([2]; 25 ppm in the growth medium): < 80%; pest or weed control at 100 ppm (Erysiphe graminis—ERYSGT; [9]): < 25%; inhibition at 25 ppm ([3]; 25 ppm in the growth medium): < 80%; pest or weed control at 100 ppm [4, 10]: 25 to 74%; pest or weed control at 100 ppm [6, 9]: < 25%; pest or weed control at 100 ppm (Septoria tritici—SEPTTR; [10]): 25 to 74% |
| COc1ccnc(C(=O)NC2C3(C)CCC(C3)C2(C)C)c1O (stereo not drawn) [Compound 288] | > 80 | < 80 | < 80 | < 80 | < 25 | < 80 | < 80 |  |  |  | pest or weed control at 100 ppm (Erysiphe graminis—ERYSGT; [11]): < 25%; pest or weed control at 100 ppm [4, 12]: < 25%; pest or weed control at 100 ppm [6, 11]: 25 to 74%; pest or weed control at 100 ppm (Septoria tritici—SEPTTR; [12]): 25 to 74% |
| CC(C)C(=O)O[C@H]1[C@H](C)OC(=O)[C@@H](NC(=O)c2nccnc2O)COC(=O)[C@@H]1Cc1ccccc1 [Compound 534] | < 80 | > 80 | > 80 | < 80 | < 25 |  |  |  |  |  | inhibition at 25 ppm ([2]; 25 ppm in the growth medium): > 80%; pest or weed control at 100 ppm (Erysiphe graminis—ERYSGT; [9]): < 25%; inhibition at 25 ppm ([3]; 25 ppm in the growth medium): > 80%; pest or weed control at 100 ppm [4, 10]: 25 to 74%; LEPTNO in vivo 1 Day Protectant [6, 9]: + +; pest or weed control at 100 ppm (Septoria tritici—SEPTTR; [10]): 25 to 74% |
| COc1cc(Br)nc(C(=O)N[C@H]2COC(=O)[C@H](Cc3ccccc3)[C@@H](OC(=O)C3CCCCC3)[C@H](C)OC2=O)c1O [Compound 501] | < 80 | < 80 | > 80 | > 80 | < 25 |  |  |  |  |  | inhibition at 25 ppm ([2]; 25 ppm in the growth medium): > 80%; pest or weed control at 100 ppm (Erysiphe graminis—ERYSGT; [9]): < 25%; inhibition at 25 ppm ([3]; 25 ppm in the growth medium): > 80%; pest or weed control at 100 ppm [4, 10]: 25 to 74%; pest or weed control at 100 ppm [6, 9]: 25 to 74%; pest or weed control at 100 ppm (Septoria tritici—SEPTTR; [10]): < 25% |
| COc1ccnc(C(=O)N[C@H]2COC(=O)[C@H](Cc3ccccc3)[C@@H](OC(=O)C(C)C)[C@H](C)OC2=O)c1OC(=O)c1ccc(F)c(F)c1 [Compound 639] | < 80 | < 80 | < 80 | < 80 | < 25 | > 80 | < 80 |  |  |  | pest or weed control at 100 ppm (Erysiphe graminis—ERYSGT; [13]): < 25%; PUCCRT in vivo 1 Day Protectant [4, 14]: + +; LEPTNO in vivo 1 Day Protectant [6, 13]: + +; SEPTTR in vivo 1 Day Protectant (Septoria tritici—SEPTTR; [14]): + + |
| COc1ccnc(C(=O)NC2CC(C)(C)CC3(C2)CC3(F)F)c1O (stereo not drawn) [Compound 255] | < 80 | < 80 | < 80 | < 80 | < 25 | < 80 | > 80 |  |  |  | pest or weed control at 100 ppm (Erysiphe graminis—ERYSGT; [11]): < 25%; pest or weed control at 100 ppm [4, 12]: 25 to 74%; LEPTNO in vivo 1 Day Protectant [6, 11]: + +; pest or weed control at 100 ppm (Septoria tritici—SEPTTR; [12]): 25 to 74% |
| COc1ccnc(C(=O)Nc2ccc(C(=O)Oc3ccc(C(F)(F)F)cc3)cc2)c1O [Compound 452] | < 80 | < 80 | < 80 | < 80 | < 25 | < 80 | < 80 | < 25 | < 25 | 25 to 74 | pest or weed control at 100 ppm [6, 15]: 25 to 74% |
| CCCCC1(C)CCCC(NC(=O)c2nccc(OC)c2O)C1 (stereo not drawn) [Compound 254] | < 80 | > 80 | > 80 | < 80 | < 25 | > 80 | > 80 |  |  |  | pest or weed control at 100 ppm (Erysiphe graminis—ERYSGT; [11]): < 25%; pest or weed control at 100 ppm [4, 12]: 25 to 74%; pest or weed control at 100 ppm [6, 11]: 25 to 74%; pest or weed control at 100 ppm (Septoria tritici—SEPTTR; [12]): 25 to 74% |
| COCC(=O)Oc1c(OC)ccnc1C(=O)N[C@H]1COC(=O)[C@H](Cc2ccccc2)[C@@H](OC(=O)C(C)C)[C@H](C)OC1=O [Compound 653] | < 80 | < 80 | < 80 | < 80 | < 25 | > 80 | > 80 |  |  |  | ERYSGT in vivo 1 Day Protectant (Erysiphe graminis—ERYSGT; [13]): + +; PUCCRT in vivo 1 Day Protectant [4, 14]: + +; LEPTNO in vivo 1 Day Protectant [6, 13]: + +; SEPTTR in vivo 1 Day Protectant (Septoria tritici—SEPTTR; [14]): + + |
| COc1ccnc(C(=O)Nc2cc(C)c(OC(=O)c3ccc(C(F)(F)F)cc3)c(C)c2)c1O [Compound 457] | < 80 | < 80 | < 80 | < 80 | < 25 | > 80 | < 80 | < 25 | < 25 | 25 to 74 | pest or weed control at 100 ppm [6, 15]: < 25% |
| COc1ccnc(C(=O)Nc2ccc(Oc3ccccc3C)cc2)c1O [Compound 415] | < 80 | < 80 | < 80 | < 80 | < 25 | < 80 | > 80 | 25 to 74 | 25 to 74 | < 25 | pest or weed control at 100 ppm [6, 15]: < 25% |
| COC(=O)C(COC(=O)CCc1ccccc1)NC(=O)c1nccc(OC)c1OC(C)=O (stereo not drawn) [Compound 583] | < 80 | < 80 | < 80 | < 80 | < 25 |  |  |  |  |  | inhibition at 25 ppm ([2]; 25 ppm in the growth medium): < 80%; pest or weed control at 100 ppm (Erysiphe graminis—ERYSGT; [9]): < 25%; inhibition at 25 ppm ([3]; 25 ppm in the growth medium): < 80%; pest or weed control at 100 ppm [4, 10]: < 25%; pest or weed control at 100 ppm [6, 9]: 25 to 74%; pest or weed control at 100 ppm (Septoria tritici—SEPTTR; [10]): < 25% |
| C[C@H]1C2CC([C@H]3CCC[C@@H]23)[C@@H]1NC(=O)c1ncccc1O (stereo partly drawn) [Compound 207] | < 80 | < 80 | > 80 | < 80 | < 25 | > 80 | > 80 |  |  |  | pest or weed control at 100 ppm (Erysiphe graminis—ERYSGT; [11]): < 25%; pest or weed control at 100 ppm [4, 12]: < 25%; pest or weed control at 100 ppm [6, 11]: < 25%; pest or weed control at 100 ppm (Septoria tritici—SEPTTR; [12]): < 25% |
| COc1ccnc(C(=O)Nc2ccc(C(=O)c3cccc(C(F)(F)F)c3)cc2)c1O [Compound 405] | < 80 | < 80 | < 80 | < 80 | < 25 | > 80 | < 80 | < 25 | < 25 | < 25 | pest or weed control at 100 ppm [6, 15]: 25 to 74% |
| CO/N=C(/c1ccc(NC(=O)c2nccc(OC)c2O)cc1)c1ccc(C(F)(F)F)cc1 [Compound 409] | < 80 | > 80 | > 80 | < 80 | 25 to 74 | > 80 | > 80 | 25 to 74 | 25 to 74 | 25 to 74 | LEPTNO in vivo 1 Day Protectant [6, 15]: + + |
